From paper PMC3556473, “Absorption, metabolism and excretion of [^14C]pomalidomide in humans following oral administration” (Cancer Chemotherapy and Pharmacology, 2012) come the findings set out here.

Where “and” joins values, the source holds several entries; their conditions need not be identical. Identical values can stand only once.

Data set [1] in a line: Metabolite profiling of urine and feces (% of dose excreted). The format is in vivo, human. Also on record: key to % of dose excreted, Feces / % of dose excreted, Urine: ND: not detected; D: detected by MS, but at concentrations too low to accurately quantify by radiochromatography. The settings on record: radiochromatography; for % of dose excreted, Feces: pooled feces 0–96 h; for % of dose excreted, Urine: pooled urine 0–72 h. How it is done:
For each subject, urine samples were pooled using an equal percentage by volume of the 0–6, 6–12, 12–24, 24–48 and 48–72 h samples. Pools of the 0–6, 6–12, 12–24, 24–48 and 48-72 h collections were also prepared across subjects and analyzed for metabolite profiling. Samples were mixed and centrifuged prior to the supernatants being transferred to fresh tubes for metabolite profiling analysis.
For each subject, fecal homogenates for metabolite profiling were pooled using an equal percentage by weight of the 0–24, 24–48, 48–72 and 72–96 h samples. Pools of the 0–24, 24-48, 48–72 and 72–96 h collections were also prepared across subjects and analyzed for metabolite profiling. An aliquot of each pool was extracted with acetonitrile; samples were mixed and centrifuged. The supernatant was removed and the pellets re-suspended with 0.1 % formic acid and extracted with acetonitrile. The combined supernatants were evaporated to dryness under a stream of nitrogen and the residue re-suspended in methanol:0.1 % formic acid in water (1:1). Samples were assayed for extraction recovery prior to metabolite profiling. A control fecal homogenate spiked with [^14C]pomalidomide was extracted in a similar manner to determine the extraction efficiency and stability of [^14C]pomalidomide.
(§1) HPLC analysis for metabolite profiling (HPLC Method 1) was performed using a Waters 2695 Alliance Separation Module (Waters Corp., Milford, MA) with the autosampler set to 4 °C. [^14C]Pomalidomide and metabolites were separated using an ACE C18 column (150 × 4.6 mm, 3 μm; Advanced Chromatography Technologies, Aberdeen, Scotland) equipped with an ACE C18 guard column (10 × 3 mm, 3 μm). The mobile phases used were 25 mM ammonium acetate in water: pH 5.5 with formic acid (mobile phase A) and methanol (mobile phase B). The column temperature was 30 °C, and the flow rate was 0.7 mL/min. The linear gradient was delivered as follows: 0–2 min 100 % A; 2–38 min to 64 % A; 38–44 min to 0 % A; 44–48 min hold at 0 % A; return to initial conditions over 2 min.
(§2) Radioactivity profiles for plasma and excreta were determined by collecting the column eluate into 96-well Deepwell LumaPlates™ at a rate of 0.25 min/fraction. The plates were dried and the radioactivity in each well determined using a PerkinElmer TopCount® NXT™ Microplate Scintillation Counter. HPLC radiochromatograms were reconstructed using LC-ARC data handling software.

The subject of data set [2] is T cell IL-2 production. Nature of the data set: Enhancement of primary human T cell IL-2 production (anti-CD3 stimulated, 2-day culture). The format is cell-based. The settings on record: 48 h, anti-CD3 stimulated primary human T cells. As for the experimental part: (§3) Metabolites and hydrolysis products of pomalidomide were tested for pharmacological activity in the following three assay systems: (1) inhibition of MM cell proliferation, (2) enhancement of primary human T cell IL-2 production and (3) inhibition of TNF-α production by lipopolysaccharide (LPS)-stimulated human peripheral blood mononuclear cells (PBMC). For all three assay types, compounds were dissolved in 100 % dimethyl sulfoxide (DMSO) and diluted into complete cell culture medium, consisting of Roswell Park Memorial Institute (RPMI)-1640 plus penicillin, streptomycin and L-glutamine (Mediatech, Manassas, VA). The MM cell proliferation cell culture medium contained 10 % fetal bovine serum, while the primary human cell cultures contained 10 % human AB serum (Invitrogen, Brown Deer, WI). The final DMSO concentration in the cell culture media was 0.25 %.
(§4) The human MM cell line OPM-2 was obtained from DSMZ (Braunschweig, Germany), and human MM cell lines U266 B1 and NCI-H929 were obtained from ATCC (Manassas, VA). Inhibition of MM cell proliferation was assessed by the [^3H]-thymidine incorporation assay in a 3-day culture in the presence of compounds in complete medium, as previously described. Primary human T cells were isolated from PBMC by negative selection using the RosetteSep T Cell Enrichment Cocktail (STEMCELL Technologies, Tukwila, WA) according to the manufacturer’s procedures. Costimulation of T cell IL-2 production was measured in a 2-day culture of primary human T cells isolated from healthy donors stimulated with anti-CD3 antibody in the presence of compounds, as previously described. Inhibition of TNF-α production by LPS-stimulated human PBMC was measured in a 1-day culture in the presence of compound, as previously described.

Data set [3] concerns PBMC TNF-α production. Nature of the data set: Inhibition of TNF-α production by LPS-stimulated human PBMC (1-day culture). In kind it is cell-based. The settings on record: 24 h. How it is done: as §3, §4
Data set [4] in a line: Plasma pharmacokinetics of pomalidomide and circulating metabolites by radiochromatography (metabolite profiling). The settings on record: for Plasma (% AUC relative to TRA): AUC0–24 (unchanged drug or metabolite)/AUC0–24 (TRA) * 100 %; for Tmax / half-life: human, oral, 2 mg; for Tmax / half-life / AUC0–24 / AUC0−∞ / C max: plasma, radiochromatography; for Tmax: median and range; for half-life: male, read-out: t ½ (converted); for half-life / AUC0–24 / AUC0−∞ / C max: geometric mean (%CV); for AUC/AUCTRA: plasma exposure relative to total radioactivity. The format is in vivo, human. Set-up: key to Plasma (% AUC relative to TRA): ND: not detected; D: detected by MS, but at concentrations too low to accurately quantify by radiochromatography; AUC0–24 / AUC0−∞: concentration or dose not given beside the values. As for the experimental part:
Individual plasma samples collected from all subjects at 1, 2.5, 4, 6, 10, 12 and 24 h post-dose were analyzed for metabolite profiling. Samples were extracted with acetonitrile, the supernatant was removed, and the pellet was washed with 0.1 % formic acid in water and extracted again with acetonitrile. The combined supernatants were adjusted to 15 or 25 mL by adding acetonitrile then evaporated to dryness under a stream of nitrogen. The residues were re-suspended in 0.1 % formic acid in water, assayed for extraction recovery and analyzed for metabolite profiling. A control plasma sample spiked with [^14C]pomalidomide was extracted in a similar manner to determine the extraction efficiency and stability of [^14C]pomalidomide.
as §1, §2
For pomalidomide and metabolite concentrations in plasma based on metabolite profiling data, pharmacokinetic data were generated by non-compartmental analysis of plasma versus time profiles using WinNonlin (version 4.1, Enterprise Edition).

Data set [5] concerns OPM-2 MM cell. The experiment in a line: Inhibition of MM cell proliferation ([3H]-thymidine incorporation, 3-day culture). In kind it is cell-based. The settings on record: Homo sapiens. How it is done:
as §3, §4

The subject of data set [6] is U266 MM cell. The data set is described as above. The format is cell-based. The settings on record: Homo sapiens, U-266. As for the experimental part: as §3, §4
Data set [7] deals with H929 MM cell. Described as above. The settings on record: Homo sapiens, NCI-H929. The format is cell-based. As for the experimental part:
as §3, §4

In data set [8] the test system is recombinant human CYP (rCYP) enzymes. The experiment in a line: Incubations of [14C]pomalidomide with 10 recombinant human CYP enzymes, radiochromatography / LC–MS/MS. The format is in vitro ADME. As for the experimental part:
The CYP enzymes responsible for the formation of the hydroxy pomalidomide metabolites were investigated using 10 recombinant human CYP (rCYP) enzymes (CYP1A2, CYP2A6, CYP2B6, CYP2C8, CYP2C9, CYP2C19, CYP2D6, CYP2E1, CYP3A4 and CYP3A5) at 100 pmol/mL. Incubations were prepared using [^14C]pomalidomide (1 μM) in 0.1 M potassium phosphate buffer (pH 7.4) with 4 mM MgCl2, pre-incubated for 5 min at 37 °C. Reactions were initiated by the addition of 1 mM NADPH and continued for 30 or 60 min. Reactions were quenched with two volumes of ice-cold 0.1 % formic acid in acetonitrile containing [^13C5]pomalidomide as internal standard. The samples were mixed and centrifuged, and a subsample of the supernatant evaporated to dryness. The resulting pellet was reconstituted in 0.1 % formic acid in water and acetonitrile (4:1, v/v) and analyzed using HPLC with radiochromatography and/or LC–MS/MS. The rate of formation of the notable human metabolite M17 was calculated and scaled to human in vivo situation using relative abundance method.

`CC(=O)Nc1cccc2c1C(=O)N(C1CCC(=O)NC1=O)C2=O` (stereo not drawn) [Metabolite M18, N-acetyl pomalidomide]: the “% of dose excreted, Feces” value in data set [1] is “D”. Also, in data set [1], the “% of dose excreted, Urine” value amounted to 0.1%. In data set [2], the EC50 was over 10 µM. In addition, the IC50 in data set [3] was over 10 µM; in data set [5], over 1 µM; in data set [6], over 1 µM; in data set [7], over 1 µM. In addition, the “Plasma (% AUC relative to TRA)” value in data set [4] is “D”.
`NC(=O)CCC(C(=O)O)N1C(=O)c2cccc(N)c2C1=O` (stereo not drawn) [Metabolite M11]: in data set [1], the “% of dose excreted, Feces” value is 0.3%; the “% of dose excreted, Urine” value is 23% and 23.3%. In addition, the EC50 in data set [2] is over 10 µM. In data set [3], this compound registered an IC50 of over 10 µM. In data set [4], the “Plasma (% AUC relative to TRA)” value is recorded as 6.3%, the Tmax is 2.5 h, the half-life was 10 h and the AUC/AUCTRA is 6.34%. Also, in data set [4], the “AUC0–24” value was 12.3 (43.6) ngEq*h/mL, the “AUC0−∞” value is 15.9 (59.7) ngEq*h/mL and the C max was 0.965 (33.3) ngEq/mL. Further, the “level of metabolite detected by radiochromatography in rCYP incubations” value in data set [8] (all rCYP incubations of [14C]pomalidomide 1 μM) was 2.5–5.9%. Further, in data set [8] (incubations of [14C]pomalidomide without enzyme), the “level of metabolite detected by radiochromatography in the absence of enzyme” value was found to be 5.5%. In data set [5], this compound returned an IC50 of over 1 µM. Further, the 50% inhibitory concentration (IC50) in data set [6] was over 1 µM. The concentration for half-maximal inhibition (IC50) in data set [7] was over 1 µM.
Regarding `Nc1ccc(O)c2c1C(=O)N(C1CCC(=O)NC1=O)C2=O` (stereo not drawn) [Metabolite M16, 7-hydroxy pomalidomide], in data set [1], the “% of dose excreted, Urine” value came to 7.0%. Besides, the EC50 in data set [2] was over 10 µM. Also, in data set [3], the IC50 is over 10 µM. Moreover, in data set [4], the “Plasma (% AUC relative to TRA)” value worked out at 6.1%, the Tmax worked out at 1 h, the half-life is 14.2 h and the AUC/AUCTRA is on record as 6.13%. Moreover, in data set [4], the “AUC0–24” value is 11.9 (16.8) ngEq*h/mL, the “AUC0−∞” value was 17.6 (29.9) ngEq*h/mL and the C max is reported as 0.907 (27.4) ngEq/mL. Besides, the “formation of metabolite in rCYP incubations (LC–MS/MS)” value in data set [8] (any of the samples analyzed) was “not observed”. In addition, the IC50 in data set [5] was over 1 µM. This compound showed an IC50 in data set [6] of over 1 µM. Moreover, in data set [7], the IC50 is over 1 µM.
For the compound `Nc1cccc2c1C(=O)N(C1CC(O)C(=O)NC1=O)C2=O` (stereo not drawn) [Metabolite M19], the “% of dose excreted, Urine” value in data set [1] is on record as “D”. Besides, the EC50 in data set [2] was found to be 1.5 µM. Moreover, the half-maximal inhibitory concentration (IC50) in data set [3] is 2.3 µM; in data set [5] it was over 1 µM; in data set [6] it was over 1 µM; in data set [7], over 1 µM. The “Plasma (% AUC relative to TRA)” value in data set [4] is recorded as “D”.
